From patent US10159676B2, “Induction of tumor hypoxia for cancer therapy” (Virginia Commonwealth University, priority 2008, dated 2018)

Assays:
Assay type in all cases: in vivo, nude mice
UCI-101 tumor xenografts = assay: Tumor xenograft size after multiple dosing (days 8, 10, 12); settings: ip on days 8, 10 and 12; stilbene 5c 50 mg/kg, tirapazamine 60 mg/kg; day 14; 6 mice per group
Protocol: The long and short axes of tumor were measured to calculate tumor size and plotted against days. Each treatment group contains 6 mice.
Mice were then sacrificed at day 14. The long and short axes of tumors were measured to calculate tumor size and plotted against days. Each treatment group contains 6 mice.
Tumor cell lines used in this study include UCI-101 ovarian cancer cells and Hep3B hepatocellular carcinoma cells. Cells are grown in IMEM and DMEM, respectively, supplemented with 10% fetal bovine serum, glutamine, and penicillium/streptomycin in 5% CO2 humidified environment. When cells were grown to 80% confluent, cells were harvested with 1% trypsin and washed with phosphate-buffered saline three times before injected subcutaneously into nude mice. For mouse xenograft studies, 2×10^6 tumor cells were injected in the back subcutaneously. Nude mice were purchased from NCI Development Therapeutic Program as described. Tumor size was monitored by long and short axes (a and b, respectively) by a caliber and tumor volume was calculated by the formula ab^2/2. […] Treatment with AAA bevacizumab was done by tail vein injection at a dose of 10 mg/kg.
Next we measured the size of tumor xenografts after multiple dosing. Nude mice were injected subcutaneously with UCI-101 cells and tumor became visible after day 7. […] Tumor xenografts were measured and sizes are plotted in FIG. 7.

UCI tumor xenograft = assay: Microvascular density by anti-CD34 immunohistochemistry and H & E staining of tumor and normal organs
Protocol: FIGS. 2A-B. Stilbene 5c treatment decreases microvascular density in tumor but not in normal organs. Nude mice with UCI tumor xenograft were treated with 10% DMSO or stilbene 5c at 50 mg/kg intraperitoneally. Mice were sacrificed at 4 hours after injection, and various organs and tumor were harvested for fixation and standard hematoxylin and eosin (H & E) staining. Immunohistochemical staining of each section was performed with anti-CD34 antibody to quantify the microvascular density. In the original immunohistochemical stained sections, brown staining indicated a positive signal for CD34 staining. (A) Shown are the black and white pictures in 200× fold magnification. The numbers of positive signals in each CD34 stained picture are counted and are shown in the right lower corner of each panel. (B) The averages and standard deviations of 4 different fields that show the most abundant microvascular density are plotted in a histogram. The sections from kidney cannot be scored due to the fact that all vessels around renal tubules are fused into a large network in the picture.
After mice were sacrificed, major organs and tumors were dissected and fixed in 10% formalin. Tissues were embedded in paraffin and sections were stained with H & E, and with antibody against CD34 for quantification of microvascular density. The scoring of microvascular density was based on the methods described by Weidner et al. by counting the CD34-positive signals in a photo frame of 200× magnification using Nikon ECLIPSE E800M microscope equipped with a Diagnostic Instruments Spot RT CCD camera.
We took tissues that were studied with DCE-MRI to investigate the vascular density of tumor and correlate with the results from DCE-MRI-derived vascular perfusion studies. We particularly examined sections from heart and brain, where the toxicity of colchicine site inhibitors was observed. Tissue sections were stained with standard H & E and anti-CD34 (an endothelial marker) antibody by immunohistochemistry staining. […] There was also no histological difference in tumor either. We then used anti-CD34 staining to score microvascular density in tumor and various normal organs (54, 55). The results are indicated at the right lower corner of each panel except kidney, which cannot be scored due to fusion of the capillary network rather than discrete dots or tubes in appearance.

[1] = test system: UCI-101 ovarian cancer tumor xenografts; assay: Real-time measurement of tumor oxygen and blood flow (OxyLite/OxyFlo); settings: 50 mg/kg intraperitoneal
Protocol: FIG. 3. Tumor blood flow and oxygen content in tumor. Oxygen and blood flow were monitored by OxyFlo and OxyLite system (Optronix, Oxford, UK). Mice were anesthetized with isoflurane and a triple sensor that records temperature, oxygen and blood flow was inserted into tumor and left for 1 hour for recording. Shown are the results of three mice with similar size subcutaneous tumors derived from UCI-101 ovarian cancer cells. Top panels are oxygen level and lower panels are tumor blood flow. Timing of St5c injection was marked.
Nude mice were injected subcutaneously with UCI-101 ovarian cancer cells to form tumor xenografts. Tumor xenografts were subjected to oxygen and blood flow study when tumor size reached 8-10 mm in largest diameter. Tumor was punctured with 25 G needle to make a tunnel for insertion of sensor probe. The tip of the sensor probe was left in the center of the tumor. Tumor oxygen level and blood flow were determined by OxyLite 2000 dual channel monitoring system with “bare-fibre” type sensor probe, which is designed for measuring tissue oxygen, temperature and blood flow using laser Doppler technique (Optonix, oxford, UK). The measurement was done in a real time basis (100 measurements per second) and the oxygen level and tumor blood flow were recording continuously. Because the initial trauma induced by needle and insertion of sensor probe can interfere with blood flow and oxygenation, each mouse was recorded first without treatment for at least 20 min before the mice was injected intraperitoneally with the tested VDA cis-3, 4′,5-trimethoxy-3′-aminostilbene (stilbene 5c) at 50 mg/kg. The tumor blood flow and oxygen level was then recorded for another 20 min after treatment.
In this study, we performed proof of concept study with VDA stilbene 5c to confirm that stilbene 5c induce tumor hypoxia. […]
There are several issues that need to be considered in order to interpret the results. […] All mice were thus recorded for at least 20 min to record the pre-treatment baseline. […]

COc1cc(/C=C\c2ccc(OC)c(N)c2)cc(OC)c1 [stilbene 5c, cis-3, 4′, 5-trimethoxy-3′-aminostilbene]
size of tumor compared with the control (UCI-101 tumor xenografts): about 50% | decrease of tumor vascular density (CD34) (UCI tumor xenograft; 50 mg/kg intraperitoneally, 4 hours after injection, vs 10% DMSO): ~4 fold | H & E staining changes in major organs (UCI tumor xenograft; after stilbene 5c treatment): did not show any significant changes | microvascular density of tumor decreased to (CD34) (UCI tumor xenograft; after stilbene 5c treatment): nearly one fourth | microvascular density of normal organs (heart, liver, kidney, brain) (UCI tumor xenograft; after stilbene 5c treatment 50 mg/kg intraperitoneally): does not change | tumor oxygen level after treatment ([1]; all three mice, within 20-30 min recording, baseline 15-60 mm Hg): less than 10 mm Hg | tumor blood flow after treatment, of the level before stilbene treatment ([1]; mice #1 and 3): less than 25% | tumor blood flow change ([1]; mouse #2 (low baseline flow 200-300)): significant in the beginning but subsequently recovered in some degree though still lower than baseline
